“Also recorded” adds a separate entry of the source.
What was measured:
[1] = system: paxillin Y118 phosphorylation in HuH-7 cells; assay: Western blotting Paxillin / pY118 Paxillin; assay type: cell-based, human
Protocol: Protein lysates were prepared in ice-cold RIPA lysis, and extraction buffer (Thermo Scientific) supplemented with 1% Halt Protease Inhibitor (Thermo Scientific) and 1% Halt Phosphatase inhibitor (Thermo Scientific). Cells were scraped off from the culture surface using a cold plastic cell scraper, and the cell suspension was then gently transferred into a pre-cooled microcentrifuge tube and maintained on ice for 30 min with constant agitation before centrifuged at 21000 × g for 20 min. The supernatant was then transferred to a new tube, and the protein concentration of the supernatant was quantified according to the Pierce™ BCA Protein Assay Kit (Thermo Scientific). The rest of the supernatant was mixed with 4x laemmli sample buffer (Bio-Rad) in a 1:3 ratio and boiled at 100 °C for 10 min. Lysates can be aliquoted and stored at −80 °C freezer. When running the gel, 30 μg of protein was loaded into each well of the SDS-PAGE gels, along with a molecular weight marker (Bio-Rad). The gel was run for 2 hr at constantly 100 V to separate the proteins based on the molecular weight. The proteins were then transferred from the SDS-gel to a PVDF membrane (Bio-Rad) using a Transfer-blot turbo system (Bio-Rad). Once the membranes were blocked with Blocking One P solution (Nacalai) for 20 min at room temperature with gentle shaking, they were probed with antibodies against GAPDH (6C5, ab8245, Abcam, 1:1000), integrin beta 1 (12G10, ab30394, Abcam, 1:100), integrin alpha 3 (ASC-1, MA5-28565, Invitrogen, 1:100), integrin alpha 6 (EPR18124, ab191551, Abcam, 1:200), Phospho-Myosin Light Chain 2 (Thr18/Ser19)(pMLC, #3647, Cell Signaling Technology, 1:200) diluted in Tris-Buffered Saline containing 0.1% Tween-20 and 5% Blocking one P solution and the membrane was incubated in the dark for overnight at 4 °C with gentle shaking. The unbounded antibodies were washed out with tris-buffered saline (TBS) containing 0.1% Tween-20 (TBS- T) for 10 min for at least 6 times. […] Protein bands were quantified by measuring peak areas using ImageJ. […]

[2] = system: RhoA in HuH-7 cells (DORA-RhoA); assay: RhoA activity by FRET; assay type: cell-based, human
From the text: The mGFP-paxillin expression vector was a gift from A. Kusumi (Okinawa Institute of Science and Technology, Japan). pGFP-FAK and pEGFP-vinculin were gifts from Kenneth Yamada (RRID: Addgene_50513 and Addgene¬_50515)[39], EGFP-talin, mVenus-Integrin-Beta1 and mRuby-Lifeact-7 was a gift from Michael Davidson (RRID: Addgene_54560). pEGFPC1/Gg Vinculin 1-258 (akaVD1) was a gift from S. Craig (RRID: Addgene_46270)[40]. The Rac1 FRET Sensor, pCAGGS-RaichuEV-Rac1was generously provided by K. Aoki (National Institute for Basic Biology, Japan)[41] and the RhoA FRET sensor, DORA-RhoA was generously provided by Yi I. Wu (University of Connecticut Health Center, USA)[42]. The expression vectors for Rac1/Tiam1 activation system (Lyn11-linker-FRB, YFP-FKBP, YFP-FKBP-linker-Tiam1, and pTriEx-PA-Rac1) was generously provided by T. Inoue (Johns Hopkins University, USA)[43].

[3] = relative to Ctrl = 1, 12 hr, representative blot

FFFIKLLI [assembling ligand: FFF coupled to the N-terminus of IKLLI; self-assembles into nanofilaments]
paxillin Y118 phosphorylation ([1]; HuH-7, 12 hr, n = 9): reduction
Paxillin band [1, 3]: 1.01
pY118Paxillin band [1, 3]: 0.34
RhoA activity, FRET/CFP ([2]; 12 hr, n = 50 cells, mean): 1.263
RhoA activity ([2]; HuH-7): great inhibition; also recorded: suppressed RhoA activity; also recorded: global inhibition

Source: paper PMC9411606, “Control cell migration by engineering integrin ligand assembly” (Nature Communications, 2022)
